According to patent publication US8809356B2, “Inhibitors of NEDD8-activating enzyme” (Millennium Pharmaceuticals, Inc., priority 2011, dated 2014):

Columns and labels:
[1] = Pharmacokinetic parameters (plasma AUC) after single subcutaneous administration in HCT116 xenograft mice; type: in vivo; conditions: I-216 at 10 mg/kg, female Ncr nude mice bearing HCT116 tumor xenografts
NAE = biological target: T1, NAE (Homo sapiens, UniProt Q8TBC4); test: In vivo Tumor Pharmacodynamic Model (neddylated cullins in HCT116 tumor xenografts); design: species or system female Ncr nude mice; conditions: expected from the pharmacodynamic and pharmacokinetic figures (FIGS. 1-3)
T1 construct: endogenous in cells; host or cells: HCT116 (ATCC CCL-247) subcutaneous tumour xenografts in female Ncr nude mice
T1 sequence (Q8TBC4 1-463): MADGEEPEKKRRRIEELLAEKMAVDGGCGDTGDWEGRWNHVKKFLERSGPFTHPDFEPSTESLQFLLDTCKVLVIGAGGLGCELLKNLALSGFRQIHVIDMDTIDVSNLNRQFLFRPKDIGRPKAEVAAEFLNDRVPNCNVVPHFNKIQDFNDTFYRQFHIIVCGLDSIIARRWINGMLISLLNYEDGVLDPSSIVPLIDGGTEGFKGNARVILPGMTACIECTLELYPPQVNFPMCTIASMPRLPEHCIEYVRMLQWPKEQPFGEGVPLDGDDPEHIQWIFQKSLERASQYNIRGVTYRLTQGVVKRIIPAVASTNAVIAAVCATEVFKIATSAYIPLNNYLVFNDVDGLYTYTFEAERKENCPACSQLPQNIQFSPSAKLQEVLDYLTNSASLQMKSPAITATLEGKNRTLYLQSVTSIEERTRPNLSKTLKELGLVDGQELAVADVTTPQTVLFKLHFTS
T1 sequence (Q13564 1-534 partner): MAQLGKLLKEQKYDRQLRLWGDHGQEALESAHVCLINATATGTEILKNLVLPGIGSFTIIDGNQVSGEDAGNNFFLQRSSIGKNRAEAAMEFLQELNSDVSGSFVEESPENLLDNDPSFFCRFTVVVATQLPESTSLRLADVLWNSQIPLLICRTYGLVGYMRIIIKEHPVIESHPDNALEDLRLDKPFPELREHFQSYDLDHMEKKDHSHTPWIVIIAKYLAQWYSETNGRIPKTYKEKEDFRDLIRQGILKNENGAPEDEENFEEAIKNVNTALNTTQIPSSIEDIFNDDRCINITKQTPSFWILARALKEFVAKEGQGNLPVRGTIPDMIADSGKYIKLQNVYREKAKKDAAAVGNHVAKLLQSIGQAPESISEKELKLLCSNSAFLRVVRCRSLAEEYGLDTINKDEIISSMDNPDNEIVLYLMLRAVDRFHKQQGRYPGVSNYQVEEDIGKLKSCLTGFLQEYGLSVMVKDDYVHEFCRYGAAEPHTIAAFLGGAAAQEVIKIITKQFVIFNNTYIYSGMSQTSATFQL
Method: HCT116 tumor cells (2×10^6) (ATCC #CCL-247) in 100 μL phosphate buffered saline were aseptically injected into the subcutaneous space in the right dorsal flank of female Ncr nude mice (age 5-8 weeks, Charles River) using a 26-gauge needle. Beginning on day 7 after inoculation, tumors were measured twice weekly using a vernier caliper. Tumor volumes were calculated using standard procedures (0.5×(length×width^2)). When the tumors reached a volume of approximately 3-700 mm^3 mice were randomized into groups and injected subcutaneously with compound inhibitor (200 μL) at various doses. Tumors were harvested and crushed in Covaris bags and then transferred to glass tubes on dry ice for sonication in the Covaris E200. […] Supernatants were transferred to new tubes and protein concentrations were determined using the Pierce bicinchoninic acid (BCA) reagents and protein standards. […]
For quantitative analysis of neddylated cullins the procedure was as follows: 20 μg of tumor lysate with lithium dodecyl sulfate (LDS) loading buffer and sample reducing agent (Invitrogen NP0007 and NP0004) was loaded onto 4-12% bis-tris gels, […], 10 well gels (Invitrogen NP0315Box). […] Quantitation of signals on Western blots was performed with the Odyssey software.

potency as inhibitor of NAE relative to I-115 (NAE): 2- to 3 fold
SMILES: CO[C@H]1Cc2cc(Cl)ccc2[C@H]1Nc1cc(O[C@@H]2C[C@@H](COS(N)(=O)=O)[C@@H](O)C2)ncn1 [I-216, {(1S,2S,4R)-4-[(6-{[(1R,2S)-5-chloro-2-methoxy-2,3-dihydro-1H-inden-1-yl]amino}pyrimidin-4-yl)oxy]-2-hydroxycyclopentyl}methyl sulfamate]
plasma AUC compared with I-115 at 30 mg/kg [1]: comparable to that observed for I-115 administered at 30 mg/kg | plasma AUC compared with I-216 at 30 mg/kg [1]: approximately half the AUC observed for I-216 administered at 30 mg/kg
